This passage reports TGI results from PubChem BioAssay (NCI).

What all share (test): inhibition of tumour cell growth, NCI panel, 48 h
Experiment [1] relates to OVCAR-8 ovarian.
For experiment [2], the system named is SNB-19 CNS.
The test system of experiment [3] is HT29 colon.
Experiment [4] relates to SF-295 CNS.
Experiment [5] has as its system HL-60(TB) leukemia.
Experiment [6] has as its system RPMI-8226 leukemia.
Experiment [7] concerns MOLT-4 leukemia.
In experiment [8] the test system is UO-31 renal.
In experiment [9] the test system is MDA-MB-435.
Experiment [10] deals with DU-145 prostate.
Experiment [11] concerns A498 renal.

The structures appear in SMILES notation.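 Step 1: Grow cells in 96-well plates. Step 2: Expose to compound for 48 hours at 5 concentrations. Step 3: Interpolate endpoints linearly; if unreached, use highest concentration. TGI: total growth inhibition.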

Regarding `Cc1ccc(S(=O)(=O)c2scc(-c3ccccc3)c2C)cc1`, the TGI in experiment [1], in experiment [2], in experiment [3], in experiment [4], in [5] and in experiment [6] was over 100 µM throughout. Further, the TGI in experiment [7], in experiment [8], in experiment [9] and in experiment [10] was over 100 µM in each case.
In the case of `O=S(=O)(Oc1ccc2oc3ccccc3c2c1-c1c(OS(=O)(=O)C(F)(F)F)ccc2oc3ccccc3c12)C(F)(F)F`, the TGI in experiment [1], in [2], in experiment [3], in [4], in experiment [5] and in [6] was over 100 µM each time. Besides, the TGI in experiment [7], in experiment [8], in experiment [11], in experiment [9] and in experiment [10] was over 100 µM in each case.
`CN(C)CCNc1ccc(C(=O)NCCCN(C)CCCNC(=O)c2ccc(NCCN(C)C)c3c(=O)c4ccccc4[nH]c23)c2[nH]c3ccccc3c(=O)c12`: the TGI was found to be 2.39 µM in experiment [1]; 1.92 µM in experiment [2]; 0.903 µM in experiment [3]; 1.91 µM in [4]; 2.74 µM in [5]; 0.229 µM in experiment [6]. Moreover, the TGI came out at 2.78 µM in experiment [7]; 15.8 µM in experiment [8]; 1.12 µM in experiment [11]; 0.286 µM in experiment [9]; 2.48 µM in experiment [10].
Regarding `CCOC(=O)c1cnc(-n2[nH]c(C)c(CCO)c2=O)[nH]c1=O`, the TGI in [1], in experiment [2], in experiment [3], in experiment [4], in experiment [5] and in experiment [6] was over 100 µM throughout. The TGI in [7], in [8], in experiment [9] and in experiment [10] was over 100 µM throughout.
Regarding `CC(=O)NC1C(OCc2ccccc2)OC(CO)C(O)C1OCC(=O)NC(C)C(=O)NC(CCC(=O)NCCCCNc1ccc([N+](=O)[O-])c2[nH]c3ccccc3c(=O)c12)C(N)=O` (stereo not drawn), the TGI in experiment [1], in experiment [2], in [3], in experiment [4], in experiment [5] and in [8] was over 100 µM in each case. Also, the TGI in experiment [11], in experiment [9] and in [10] was over 100 µM in each case.
For `O=C1CSC2(CC(/C=C/c3ccccc3)=NN2c2cccc(S(=O)(=O)O)c2)N1c1nc2ccccc2s1` (stereo not drawn), the TGI in experiment [1] was 35.8 µM; in [2], 51.7 µM; in experiment [3] it was over 100 µM; in [5], 94.6 µM; in [6], 53.7 µM; in [7], 91.5 µM. Besides, the TGI came to 35.7 µM in [8], 64.3 µM in experiment [11], 37.2 µM in [9] and 54.4 µM in experiment [10].
Consider `O=C1N[C@H]2c3c(Cl)sc(Cl)c3/C(=N/O)[C@H]2O1`, for which the TGI was over 100 µM in experiment [1]; over 100 µM in experiment [2]; over 100 µM in [3]; 57.9 µM in experiment [5]; over 100 µM in [6]; over 100 µM in experiment [7]. Also, the TGI in experiment [8], in [11], in experiment [9] and in experiment [10] was over 100 µM each time.
For `O=C(CP(c1ccccc1)c1ccccc1)c1cccc(C(=O)CP(c2ccccc2)c2ccccc2)c1`, the TGI was over 100 µM in experiment [1]; over 100 µM in experiment [2]; over 100 µM in [3]; over 100 µM in [4]; 42.8 µM in experiment [5]; 67.4 µM in experiment [6]. Also, the TGI in experiment [7] was 48 µM; in experiment [8] it was 50.8 µM; in experiment [9] it was over 100 µM; in [10] it was over 100 µM.
As to `C=C(C)[C@@]1(O)O[C@H]2C[C@@]3(C)OC(=CC3=O)/C(C)=C\[C@@H]3OC(=O)[C@@]1(C)[C@H]32`, the TGI is over 100 µM in [1]; over 100 µM in experiment [2]; 40.9 µM in [3]; 66.9 µM in experiment [4]; over 47.2 µM in [5]; over 58.1 µM in [6]. In addition, the TGI was 40.4 µM in experiment [7], 57 µM in [8], over 100 µM in experiment [9] and over 100 µM in [10].
On to `C=CCNC(=S)Nc1sc2c(c1C(=O)OCC)CC(C)CC2` (stereo not drawn), for which the TGI is over 100 µM in experiment [1]; 62.5 µM in [2]; 47.1 µM in experiment [3]; 59.5 µM in experiment [4]; 14.7 µM in [5]; 68.6 µM in experiment [6]. For the same molecule, the TGI in [7] was 80 µM; in experiment [8], 56.3 µM; in [9], over 100 µM; in experiment [10], over 100 µM.
Regarding `COc1ccc2oc(=N)c(C(=O)Nc3cccc4ccccc34)cc2c1`, the TGI in [2] was 48 µM; in experiment [3], over 100 µM; in experiment [4], 25.4 µM; in experiment [5], over 100 µM; in [6] it was 57.9 µM; in [8], 30.5 µM. Also, the figures for the TGI in [11], in [9] and in experiment [10] were 39.2 µM, 11.1 µM and over 100 µM, respectively.
In the case of `CC1=NN(c2nc(N)nc(-c3ccccc3S(N)(=O)=O)n2)C(C)(C)C1`, the TGI in experiment [1] is over 100 µM; in [3], over 100 µM; in experiment [4], over 100 µM; in experiment [5] it was 41.2 µM; in [6], over 100 µM; in experiment [7], 79.8 µM. In addition, the TGI in experiment [8] is over 100 µM; in experiment [11] it was 64.5 µM; in [9] it was over 100 µM; in experiment [10] it was over 100 µM.
As to `O=C1c2c(F)c(F)c(F)c(F)c2SC2=NCCN12`, the TGI in [1] was found to be 24.5 µM; in experiment [2] it was 29 µM; in experiment [3] it was 8.12 µM; in experiment [4] it was 32.4 µM; in experiment [6], 24.8 µM; in experiment [7] it was 6.7 µM. The TGI in experiment [8] was 22.5 µM; in experiment [11] it was 32.9 µM; in experiment [9] it was 8.59 µM; in [10] it was 31 µM.
With `CCOC(=O)c1ccc(N=NN(C)C(=O)C(C)N)cc1` (stereo not drawn), the TGI in experiment [1], in experiment [2], in [3], in experiment [4], in experiment [5] and in experiment [6] was over 100 µM in each case. In addition, the TGI in [7], in experiment [8], in experiment [9] and in [10] was over 100 µM in each case.
For `CCOC(=O)c1cn(-c2ccccc2)c(=S)n2c1nc1ccccc12`, the TGI in experiment [1] was over 100 µM; in experiment [2] it was over 100 µM; in experiment [3] it was over 90.8 µM; in experiment [4], over 100 µM; in experiment [6], over 100 µM; in experiment [7] it was 17.5 µM. Moreover, the figures for the TGI in experiment [11], in [9] and in experiment [10] were over 100 µM, over 94.8 µM and over 100 µM, respectively.
Take `CC(C)(C)OC(=O)CN1CCNCCNCC1`: the TGI in experiment [1], in experiment [2], in experiment [3], in experiment [4], in [6] and in experiment [7] was over 100 µM each time. The TGI in [8], in experiment [11], in experiment [9] and in experiment [10] was over 100 µM each time.
With `COc1cc(/C=C/C(=O)OCC23CC[C@@]4(C(=O)O)CCC(C)[C@H](C)C4C2=CCC2[C@@]4(C)CC[C@H](O)C(C)(C)C4CC[C@]23C)ccc1O` (stereo partly drawn), the TGI in experiment [1] is 35.7 µM; in experiment [2] it was over 100 µM; in experiment [3], 42 µM; in experiment [4] it was 73.9 µM; in experiment [5], 51.1 µM; in experiment [7], 76.2 µM. Also, the TGI in [11] was 68.5 µM; in [9], 57 µM; in experiment [10], 23.2 µM.
As to `CC[n+]1cnc(N)c2c(-c3ccc(Cl)cc3)cn(-c3ccc(C)cc3)c21`, the TGI is 32.7 µM in experiment [1]; 28.8 µM in experiment [2]; 17.7 µM in experiment [3]; 25.3 µM in experiment [4]; 44.3 µM in experiment [5]; 20.5 µM in experiment [7]. For the same molecule, the TGI in [8] came to 21.5 µM; in [11], 24 µM; in experiment [9], 23.7 µM; in experiment [10], 31.8 µM.
As to `c1csc(-c2ccc(-c3ccc(-c4ccc(-c5cccs5)s4)s3)s2)c1`, the TGI was over 100 µM in experiment [1]; over 100 µM in experiment [3]; over 100 µM in experiment [4]; 53.6 µM in [5]; over 100 µM in experiment [6]; over 100 µM in [7]. Further, the TGI in experiment [8], in experiment [11], in [9] and in experiment [10] was over 100 µM in each case.
